Assays:
Experiment in all cases: KINOMEscan
Format in all cases: binding
Details in all cases: read-out: percent of control
ACVRL1 = ACVRL1 (Homo sapiens (Human), UniProt P37023)
Method: (§1) In vitro profiling of Compound I-2 (1 μM) was performed using the DiscoveRx KINOMEscan® platform.

BMPR2 = BMPR2 (Homo sapiens (Human), UniProt Q13873)
Method: as §1

CAMK2D = CAMK2D (Homo sapiens (Human), UniProt Q13557)
Method: as §1

CHEK1 = CHEK1 (Homo sapiens (Human), UniProt O14757)
Method: as §1

CSNK1G2 = CSNK1G2 (Homo sapiens (Human), UniProt P78368)
Method: as §1

CSNK2A2 = CSNK2A2 (Homo sapiens (Human), UniProt P19784)
Method: as §1

DRAK1 = DRAK1 (Homo sapiens (Human), UniProt Q9UEE5)
Method: as §1

EPHA6 = EPHA6 (Homo sapiens (Human), UniProt Q9UF33)
Method: as §1

KIT(V559D,V654A) = KIT(V559D,V654A) (Homo sapiens (Human), UniProt P10721, V559D/V654A)
Method: as §1

LOK = LOK (Homo sapiens (Human), UniProt O94804)
Method: as §1

MAP4K2 = MAP4K2 (Homo sapiens (Human), UniProt Q12851)
Method: as §1

MAP4K5 = MAP4K5 (Homo sapiens (Human), UniProt Q9Y4K4)
Method: as §1

MAPKAPK2 = MAPKAPK2 (Homo sapiens (Human), UniProt P49137)
Method: as §1

MARK3 = MARK3 (Homo sapiens (Human), UniProt P27448)
Method: as §1

MEK3 = MEK3 (Homo sapiens (Human), UniProt P46734)
Method: as §1

MKNK1 = MKNK1 (Homo sapiens (Human), UniProt Q9BUB5)
Method: as §1

MKNK2 = MKNK2 (Homo sapiens (Human), UniProt Q9HBH9)
Method: as §1

MLK2 = MLK2 (Homo sapiens (Human), UniProt Q02779)
Method: as §1

NIK = NIK (Homo sapiens (Human), UniProt Q99558)
Method: as §1

NLK = NLK (Homo sapiens (Human), UniProt Q9UBE8)
Method: as §1

PAK2 = PAK2 (Homo sapiens (Human), UniProt Q13177)
Method: as §1

PDGFRB = PDGFRB (Homo sapiens (Human), UniProt P09619)
Method: as §1

PIK3CA(E545A) = PIK3CA(E545A) (Homo sapiens (Human), UniProt P42336, E545A)
Method: as §1

PIK3CA(H1047Y) = PIK3CA(H1047Y) (Homo sapiens (Human), UniProt P42336, H1047Y)
Method: as §1

PIK3CA(Q546K) = PIK3CA(Q546K) (Homo sapiens (Human), UniProt P42336, Q546K)
Method: as §1

PIK3CD = PIK3CD (Homo sapiens (Human), UniProt O00329)
Method: as §1

PIP5K1C = PIP5K1C (Homo sapiens (Human), UniProt O60331)
Method: as §1

PLK4 = PLK4 (Homo sapiens (Human), UniProt O00444)
Method: as §1

PRKG1 = PRKG1 (Homo sapiens (Human), UniProt Q13976)
Method: as §1

ROS1 = ROS1 (Homo sapiens (Human), UniProt P08922)
Method: as §1

[1] = molecular target: RSK4 (Kin.Dom.1-N-terminal) (Homo sapiens (Human), UniProt Q9UK32)
Method: as §1

SIK = SIK (Homo sapiens (Human), UniProt P57059)
Method: as §1

SRMS = SRMS (Homo sapiens (Human), UniProt Q9H3Y6)
Method: as §1

TIE2 = TIE2 (Homo sapiens (Human), UniProt Q02763)
Method: as §1

TLK1 = TLK1 (Homo sapiens (Human), UniProt Q9UKI8)
Method: as §1

TRPM6 = TRPM6 (Homo sapiens (Human), UniProt Q9BX84)
Method: as §1

ULK3 = ULK3 (Homo sapiens (Human), UniProt Q6PHR2)
Method: as §1

VPS34 = VPS34 (Homo sapiens (Human), UniProt Q8NEB9)
Method: as §1

YANK2 = YANK2 (Homo sapiens (Human), UniProt Q9NY57)
Method: as §1

Chain of ACVRL1 (P37023 22-503): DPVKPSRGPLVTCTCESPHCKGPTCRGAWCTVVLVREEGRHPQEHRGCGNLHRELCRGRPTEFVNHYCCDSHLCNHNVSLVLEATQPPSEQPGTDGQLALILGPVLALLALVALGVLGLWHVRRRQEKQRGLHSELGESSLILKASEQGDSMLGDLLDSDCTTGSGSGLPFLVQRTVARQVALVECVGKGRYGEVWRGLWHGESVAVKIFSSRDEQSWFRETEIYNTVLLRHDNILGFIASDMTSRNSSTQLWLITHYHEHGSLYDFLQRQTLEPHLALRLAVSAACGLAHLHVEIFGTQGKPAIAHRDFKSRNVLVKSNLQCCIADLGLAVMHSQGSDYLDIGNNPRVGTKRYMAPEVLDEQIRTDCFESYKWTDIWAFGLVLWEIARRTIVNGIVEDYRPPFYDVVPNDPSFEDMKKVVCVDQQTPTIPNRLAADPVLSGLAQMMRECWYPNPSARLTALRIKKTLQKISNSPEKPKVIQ
Chain of PAK2 (Q13177 whole entry): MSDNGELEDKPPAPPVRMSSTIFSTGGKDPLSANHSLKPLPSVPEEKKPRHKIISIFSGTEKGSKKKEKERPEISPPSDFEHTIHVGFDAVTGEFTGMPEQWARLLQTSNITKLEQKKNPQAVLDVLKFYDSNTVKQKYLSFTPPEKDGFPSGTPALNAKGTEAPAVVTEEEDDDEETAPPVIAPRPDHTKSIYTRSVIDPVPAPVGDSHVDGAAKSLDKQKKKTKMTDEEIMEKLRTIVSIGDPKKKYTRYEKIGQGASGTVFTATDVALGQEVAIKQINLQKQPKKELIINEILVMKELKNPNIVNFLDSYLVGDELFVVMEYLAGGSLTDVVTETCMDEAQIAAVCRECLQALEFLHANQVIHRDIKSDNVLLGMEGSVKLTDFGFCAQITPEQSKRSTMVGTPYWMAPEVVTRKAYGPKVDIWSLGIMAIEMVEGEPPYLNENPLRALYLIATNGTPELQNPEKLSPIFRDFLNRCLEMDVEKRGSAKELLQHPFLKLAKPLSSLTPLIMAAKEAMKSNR
Chain of TLK1 (Q9UKI8 whole entry): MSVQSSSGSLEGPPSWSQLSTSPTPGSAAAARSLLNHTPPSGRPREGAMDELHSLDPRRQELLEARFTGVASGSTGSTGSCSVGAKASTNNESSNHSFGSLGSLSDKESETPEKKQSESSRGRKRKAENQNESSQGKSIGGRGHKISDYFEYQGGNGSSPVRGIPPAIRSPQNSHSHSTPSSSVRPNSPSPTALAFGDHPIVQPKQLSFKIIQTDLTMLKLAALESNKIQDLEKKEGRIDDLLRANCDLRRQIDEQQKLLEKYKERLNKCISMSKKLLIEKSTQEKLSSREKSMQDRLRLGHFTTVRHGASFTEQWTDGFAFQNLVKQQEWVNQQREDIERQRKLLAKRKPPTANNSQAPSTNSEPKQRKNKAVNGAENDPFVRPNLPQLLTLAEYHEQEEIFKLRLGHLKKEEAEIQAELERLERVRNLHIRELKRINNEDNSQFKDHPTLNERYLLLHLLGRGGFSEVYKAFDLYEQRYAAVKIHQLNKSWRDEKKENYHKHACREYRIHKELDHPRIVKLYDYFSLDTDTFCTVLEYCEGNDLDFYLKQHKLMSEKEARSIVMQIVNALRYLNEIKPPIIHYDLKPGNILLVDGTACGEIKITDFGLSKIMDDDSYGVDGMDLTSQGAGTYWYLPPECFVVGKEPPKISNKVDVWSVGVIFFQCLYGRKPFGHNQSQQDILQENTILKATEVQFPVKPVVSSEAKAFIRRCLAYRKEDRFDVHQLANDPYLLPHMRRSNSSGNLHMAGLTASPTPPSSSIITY
Chain of BMPR2 (Q13873 27-1038): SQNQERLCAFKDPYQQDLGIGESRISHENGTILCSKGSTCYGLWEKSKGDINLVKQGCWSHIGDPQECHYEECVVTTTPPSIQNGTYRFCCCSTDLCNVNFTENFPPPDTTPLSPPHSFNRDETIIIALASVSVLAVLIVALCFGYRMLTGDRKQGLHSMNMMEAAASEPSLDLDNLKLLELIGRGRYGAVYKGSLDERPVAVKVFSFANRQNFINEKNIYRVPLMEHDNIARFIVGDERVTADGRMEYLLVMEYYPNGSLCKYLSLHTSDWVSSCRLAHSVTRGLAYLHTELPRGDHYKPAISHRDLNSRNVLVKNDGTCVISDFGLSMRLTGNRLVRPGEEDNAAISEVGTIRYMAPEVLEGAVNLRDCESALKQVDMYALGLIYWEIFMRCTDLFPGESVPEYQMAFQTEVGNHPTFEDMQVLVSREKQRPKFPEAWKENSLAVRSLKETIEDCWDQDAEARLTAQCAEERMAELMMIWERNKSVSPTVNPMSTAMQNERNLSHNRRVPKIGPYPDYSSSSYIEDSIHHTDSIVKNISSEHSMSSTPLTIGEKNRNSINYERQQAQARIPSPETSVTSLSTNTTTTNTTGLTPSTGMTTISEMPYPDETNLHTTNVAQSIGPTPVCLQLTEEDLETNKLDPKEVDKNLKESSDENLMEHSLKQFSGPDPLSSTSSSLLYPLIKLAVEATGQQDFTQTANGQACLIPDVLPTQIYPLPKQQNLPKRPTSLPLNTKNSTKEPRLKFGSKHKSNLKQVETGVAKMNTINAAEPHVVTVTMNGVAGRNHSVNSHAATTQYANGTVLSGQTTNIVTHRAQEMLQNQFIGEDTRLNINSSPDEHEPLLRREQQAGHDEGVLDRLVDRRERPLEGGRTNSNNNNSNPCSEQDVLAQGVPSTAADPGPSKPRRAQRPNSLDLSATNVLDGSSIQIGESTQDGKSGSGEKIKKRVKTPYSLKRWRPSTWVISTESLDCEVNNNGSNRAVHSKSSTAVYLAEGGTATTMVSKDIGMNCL
Chain of PIK3CD (O00329 whole entry): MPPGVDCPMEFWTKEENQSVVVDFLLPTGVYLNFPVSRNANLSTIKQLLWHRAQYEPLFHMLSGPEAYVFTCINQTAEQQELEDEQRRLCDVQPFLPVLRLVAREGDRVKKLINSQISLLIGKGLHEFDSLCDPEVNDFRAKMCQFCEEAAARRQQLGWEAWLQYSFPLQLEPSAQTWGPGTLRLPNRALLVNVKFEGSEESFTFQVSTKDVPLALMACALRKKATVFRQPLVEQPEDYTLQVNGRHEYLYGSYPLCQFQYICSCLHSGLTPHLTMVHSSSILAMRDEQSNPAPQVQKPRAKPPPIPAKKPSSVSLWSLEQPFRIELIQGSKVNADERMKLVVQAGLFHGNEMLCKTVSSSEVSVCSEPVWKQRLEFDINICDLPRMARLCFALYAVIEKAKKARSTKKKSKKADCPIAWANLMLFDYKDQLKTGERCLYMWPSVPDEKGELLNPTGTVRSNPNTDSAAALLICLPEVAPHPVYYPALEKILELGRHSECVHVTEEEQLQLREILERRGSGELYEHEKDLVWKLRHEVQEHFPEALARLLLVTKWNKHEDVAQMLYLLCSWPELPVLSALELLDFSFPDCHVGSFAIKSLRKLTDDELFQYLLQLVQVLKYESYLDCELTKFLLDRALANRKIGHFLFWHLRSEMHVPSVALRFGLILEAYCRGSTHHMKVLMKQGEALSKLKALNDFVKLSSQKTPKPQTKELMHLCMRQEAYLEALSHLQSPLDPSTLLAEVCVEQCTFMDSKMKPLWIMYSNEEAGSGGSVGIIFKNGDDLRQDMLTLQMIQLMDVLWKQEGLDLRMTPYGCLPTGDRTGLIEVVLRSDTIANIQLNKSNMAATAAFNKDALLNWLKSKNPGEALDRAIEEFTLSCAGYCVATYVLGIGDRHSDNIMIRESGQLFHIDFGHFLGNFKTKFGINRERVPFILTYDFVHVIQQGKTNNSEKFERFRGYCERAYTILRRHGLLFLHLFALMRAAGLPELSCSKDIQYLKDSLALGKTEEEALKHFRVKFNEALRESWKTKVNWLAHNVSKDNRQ
Chain of PIK3CA(E545A) (P42336 whole entry E545A): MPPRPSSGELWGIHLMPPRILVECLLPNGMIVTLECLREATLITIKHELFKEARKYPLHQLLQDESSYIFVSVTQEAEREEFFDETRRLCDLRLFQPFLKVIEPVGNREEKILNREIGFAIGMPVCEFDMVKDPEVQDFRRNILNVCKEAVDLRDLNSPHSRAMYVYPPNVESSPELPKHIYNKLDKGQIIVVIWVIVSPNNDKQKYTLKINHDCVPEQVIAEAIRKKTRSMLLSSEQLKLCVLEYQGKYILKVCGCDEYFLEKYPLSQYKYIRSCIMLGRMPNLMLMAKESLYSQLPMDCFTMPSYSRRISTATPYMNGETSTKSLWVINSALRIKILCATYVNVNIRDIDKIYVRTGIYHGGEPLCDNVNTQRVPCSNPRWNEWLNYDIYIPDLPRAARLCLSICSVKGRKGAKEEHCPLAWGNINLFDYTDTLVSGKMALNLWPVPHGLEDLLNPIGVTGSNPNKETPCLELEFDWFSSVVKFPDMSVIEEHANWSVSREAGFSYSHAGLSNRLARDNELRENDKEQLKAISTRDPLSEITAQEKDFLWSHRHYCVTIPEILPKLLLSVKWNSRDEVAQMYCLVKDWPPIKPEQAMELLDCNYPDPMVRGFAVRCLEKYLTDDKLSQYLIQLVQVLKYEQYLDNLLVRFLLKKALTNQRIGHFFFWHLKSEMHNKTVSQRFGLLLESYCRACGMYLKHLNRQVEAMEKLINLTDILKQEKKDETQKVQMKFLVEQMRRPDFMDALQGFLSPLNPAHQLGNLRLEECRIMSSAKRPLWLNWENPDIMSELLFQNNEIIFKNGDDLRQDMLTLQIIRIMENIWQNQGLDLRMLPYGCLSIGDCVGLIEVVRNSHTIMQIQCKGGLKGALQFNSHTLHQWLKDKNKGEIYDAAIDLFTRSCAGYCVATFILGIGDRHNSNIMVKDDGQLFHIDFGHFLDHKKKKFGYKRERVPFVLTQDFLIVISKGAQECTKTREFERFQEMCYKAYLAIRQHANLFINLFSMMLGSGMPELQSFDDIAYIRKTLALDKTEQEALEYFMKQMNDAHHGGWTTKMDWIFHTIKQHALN
Chain of PIK3CA(H1047Y) (P42336 whole entry H1047Y): as the sequence (P42336 whole entry E545A) above, with A545E, H1047Y counted along it
Chain of PIK3CA(Q546K) (P42336 whole entry Q546K): as the sequence (P42336 whole entry E545A) above, with A545E, Q546K counted along it

SMILES | remaining binding at 1 µM (ACVRL1) | remaining binding at 1 µM (BMPR2) | remaining binding at 1 µM (CAMK2D) | remaining binding at 1 µM (CHEK1) | remaining binding at 1 µM (CSNK1G2) | remaining binding at 1 µM (CSNK2A2) | remaining binding at 1 µM (DRAK1) | remaining binding at 1 µM (EPHA6) | remaining binding at 1 µM (KIT(V559D,V654A)) | remaining binding at 1 µM (LOK) | remaining binding at 1 µM (MAP4K2) | remaining binding at 1 µM (MAP4K5) | remaining binding at 1 µM (MAPKAPK2) | remaining binding at 1 µM (MARK3) | remaining binding at 1 µM (MEK3) | remaining binding at 1 µM (MKNK1) | remaining binding at 1 µM (MKNK2) | remaining binding at 1 µM (MLK2) | remaining binding at 1 µM (NIK) | remaining binding at 1 µM (NLK) | also measured
CCN1CCN(Cc2cc(NC(=O)c3ccc(C)c(-c4ccc5nc(NC(=O)C6CC6)cn5n4)c3)cc(C(F)(F)F)c2)CC1 [Compound I-2, 3-(2-(cyclopropanecarboxamido)imidazo[1,2-b]pyridazin-6-yl)-N-(3-((4-ethylpiperazin-1-yl)methyl)-5-(trifluoromethyl)phenyl)-4-methylbenzamide] | 91% | 100% | 100% | 100% | 92% | 94% | 100% | 5.2% | 6.1% | 0% | 0.05% | 0.7% | 72% | 94% | 71% | 76% | 87% | 72% | 100% | 95% | remaining binding at 1 µM (PAK2): 93%; remaining binding at 1 µM (PDGFRB): 0%; remaining binding at 1 µM (PIK3CA(E545A)): 91%; remaining binding at 1 µM (PIK3CA(H1047Y)): 82%; remaining binding at 1 µM (PIK3CA(Q546K)): 76%; remaining binding at 1 µM (PIK3CD): 100%; remaining binding at 1 µM (PIP5K1C): 85%; remaining binding at 1 µM (PLK4): 81%; remaining binding at 1 µM (PRKG1): 100%; remaining binding at 1 µM (ROS1): 52%; remaining binding at 1 µM [1]: 93%; remaining binding at 1 µM (SIK): 100%; remaining binding at 1 µM (SRMS): 86%; remaining binding at 1 µM (TIE2): 0.1%; remaining binding at 1 µM (TLK1): 100%; remaining binding at 1 µM (TRPM6): 93%; remaining binding at 1 µM (ULK3): 97%; remaining binding at 1 µM (VPS34): 91%; remaining binding at 1 µM (YANK2): 91%
CCN1CCN(Cc2cc(NC(=O)c3ccc(C)c(-c4ccc5nc(NC(=O)C6CC6)cn5c4)c3)cc(C(F)(F)F)c2)CC1 [Compound I-6, 3-(2-(cyclopropanecarboxamido)imidazo[1,2-a]pyridin-6-yl)-N-(3-((4-ethylpiperazin-1-yl)methyl)-5-(trifluoromethyl)phenyl)-4-methylbenzamide] | 92% | 100% | 92% | 100% | 100% | 100% | 94% | 0.75% | 7.4% | 0% | 0.2% | 3.2% | 96% | 95% | 87% | 91% | 82% | 62% | 72% | 100% | remaining binding at 1 µM (PAK2): 70%; remaining binding at 1 µM (PDGFRB): 0%; remaining binding at 1 µM (PIK3CA(E545A)): 100%; remaining binding at 1 µM (PIK3CA(H1047Y)): 92%; remaining binding at 1 µM (PIK3CA(Q546K)): 94%; remaining binding at 1 µM (PIK3CD): 69%; remaining binding at 1 µM (PIP5K1C): 94%; remaining binding at 1 µM (PLK4): 95%; remaining binding at 1 µM (PRKG1): 87%; remaining binding at 1 µM (ROS1): 59%; remaining binding at 1 µM [1]: 87%; remaining binding at 1 µM (SIK): 100%; remaining binding at 1 µM (SRMS): 79%; remaining binding at 1 µM (TIE2): 0.25%; remaining binding at 1 µM (TLK1): 97%; remaining binding at 1 µM (TRPM6): 78%; remaining binding at 1 µM (ULK3): 100%; remaining binding at 1 µM (VPS34): 93%; remaining binding at 1 µM (YANK2): 100%

From patent US20230391768A2, “IMIDAZOPYRIDINE DERIVATIVES AND AZA-IMIDAZOPYRIDINE DERIVATIVES AS JANUS KINASE 2 INHIBITORS AND USES THEREOF” (Dana-Farber Cancer Institute, Inc., priority 2018, published 2023)
